Results reported in ChEMBL document CHEMBL3865846, “Synthesis and biological evaluation of ricinoleic acid-based lipoamino acid derivatives” (Bioorg Med Chem Lett, 2016).
Values after ≈ are worked out from the molar mass of the structure shown.

Legend:
Format in all cases: functional
Candida albicans [1] = experiment: Fungicidal activity against Candida albicans MTCC183 measured after 24 hrs; conditions: MTCC183, 24 h
Candida albicans [2] = experiment: Antimicrobial activity against Candida albicans MTCC3018 measured after 24 hrs by well-diffusion method; conditions: MTCC3018, 24 h
Candida albicans [3] = experiment: Antimicrobial activity against Candida albicans MTCC854 measured after 24 hrs by well-diffusion method; conditions: MTCC854, 24 h
Bacillus subtilis [4] = experiment: Bactericidal activity against Bacillus subtilis MTCC121 measured after 24 hrs; conditions: MTCC121, 24 h
Candida albicans [5] = experiment: Antimicrobial activity against Candida albicans MTCC183 measured after 24 hrs by well-diffusion method; conditions: MTCC183, 24 h
Candida albicans [6] = experiment: Fungicidal activity against Candida albicans MTCC227 measured after 24 hrs; conditions: MTCC227, 24 h
Bacillus subtilis [7] = experiment: Antimicrobial activity against Bacillus subtilis MTCC121 measured after 24 hrs by well-diffusion method; conditions: MTCC121, 24 h
Candida albicans [8] = experiment: Antimicrobial activity against Candida albicans MTCC4748 measured after 24 hrs by well-diffusion method; conditions: MTCC4748, 24 h
Escherichia coli = experiment: Antimicrobial activity against Escherichia coli MTCC739 measured after 24 hrs by well-diffusion method; conditions: MTCC739, 24 h
Candida parapsilosis [9] = experiment: Antimicrobial activity against Candida parapsilosis MTCC1744 measured after 24 hrs by well-diffusion method; conditions: Lodderomyces parapsilosis, MTCC1744, 24 h
Candida albicans [10] = experiment: Fungicidal activity against Candida albicans MTCC3018 measured after 24 hrs; conditions: MTCC3018, 24 h
Candida albicans [11] = experiment: Antimicrobial activity against Candida albicans MTCC7315 measured after 24 hrs by well-diffusion method; conditions: MTCC7315, 24 h
Staphylococcus aureus [12] = experiment: Anti-biofilm activity against Staphylococcus aureus MTCC96 measured after 24 hrs by crystal violet-staining based method; conditions: MTCC96, 24 h
Candida albicans [13] = experiment: Fungicidal activity against Candida albicans MTCC1637 measured after 24 hrs; conditions: MTCC1637, 24 h
[Candida] aaseri = Fungicidal activity against Candida aaseri MTCC1962 measured after 24 hrs; conditions: Yamadazyma aaseri, MTCC1962, 24 h
Staphylococcus aureus [14] = experiment: Bactericidal activity against Staphylococcus aureus MLS16 MTCC2940 measured after 24 hrs; conditions: MLS16 MTCC2940, 24 h
Pichia kudriavzevii [15] = experiment: Antimicrobial activity against Candida krusei MTCC3020 measured after 24 hrs by well-diffusion method; conditions: MTCC3020, 24 h
Nakaseomyces glabratus [16] = experiment: Fungicidal activity against Candida glabrata MTCC3019 measured after 24 hrs; conditions: MTCC3019, 24 h
Pichia sporocuriosa = experiment: Antimicrobial activity against Issatchenkia hanoiensis MTCC4755 measured after 24 hrs by well-diffusion method; conditions: MTCC4755, 24 h
Candida albicans [17] = experiment: Fungicidal activity against Candida albicans MTCC4748 measured after 24 hrs; conditions: MTCC4748, 24 h
Candida parapsilosis [18] = experiment: Fungicidal activity against Candida parapsilosis MTCC1744 measured after 24 hrs; conditions: Lodderomyces parapsilosis, MTCC1744, 24 h
Pichia kudriavzevii [19] = experiment: Anti-biofilm activity against Candida krusei MTCC3020 measured after 24 hrs by crystal violet-staining based method; conditions: MTCC3020, 24 h
Staphylococcus aureus [20] = experiment: Bactericidal activity against Staphylococcus aureus MTCC96 measured after 24 hrs; conditions: MTCC96, 24 h
Nakaseomyces glabratus [21] = experiment: Antimicrobial activity against Candida glabrata MTCC3019 measured after 24 hrs by well-diffusion method; conditions: MTCC3019, 24 h
Bacillus subtilis [22] = experiment: Anti-biofilm activity against Bacillus subtilis MTCC121 measured after 24 hrs by crystal violet-staining based method; conditions: MTCC121, 24 h
Candida albicans [23] = experiment: Antimicrobial activity against Candida albicans MTCC1637 measured after 24 hrs by well-diffusion method; conditions: MTCC1637, 24 h
Pichia kudriavzevii [24] = experiment: Fungicidal activity against Candida krusei MTCC3020 measured after 24 hrs; conditions: MTCC3020, 24 h
Micrococcus luteus [25] = experiment: Anti-biofilm activity against Micrococcus luteus MTCC2470 measured after 24 hrs by crystal violet-staining based method; conditions: MTCC2470, 24 h
Candida albicans [26] = experiment: Fungicidal activity against Candida albicans MTCC7315 measured after 24 hrs; conditions: MTCC7315, 24 h
Micrococcus luteus [27] = experiment: Antimicrobial activity against Micrococcus luteus MTCC2470 measured after 24 hrs by well-diffusion method; conditions: MTCC2470, 24 h
Micrococcus luteus [28] = experiment: Bactericidal activity against Micrococcus luteus MTCC2470 measured after 24 hrs; conditions: MTCC2470, 24 h
Staphylococcus aureus [29] = experiment: Antimicrobial activity against Staphylococcus aureus MTCC96 measured after 24 hrs by well-diffusion method; conditions: MTCC96, 24 h
Staphylococcus aureus [30] = experiment: Antimicrobial activity against Staphylococcus aureus MLS16 MTCC2940 measured after 24 hrs by well-diffusion method; conditions: MLS16 MTCC2940, 24 h
Candida albicans [31] = experiment: Fungicidal activity against Candida albicans MTCC854 measured after 24 hrs; conditions: MTCC854, 24 h
Candida albicans [32] = experiment: Fungicidal activity against Candida albicans MTCC3958 measured after 24 hrs; conditions: MTCC3958, 24 h
Candida albicans [33] = experiment: Antimicrobial activity against Candida albicans MTCC227 measured after 24 hrs by well-diffusion method; conditions: MTCC227, 24 h
Candida albicans [34] = experiment: Antimicrobial activity against Candida albicans MTCC3958 measured after 24 hrs by well-diffusion method; conditions: MTCC3958, 24 h
Staphylococcus aureus [35] = experiment: Anti-biofilm activity against Staphylococcus aureus MLS16 MTCC2940 measured after 24 hrs by crystal violet-staining based method; conditions: MLS16 MTCC2940, 24 h
Raoultella planticola = experiment: Antimicrobial activity against Klebsiella planticola MTCC530 measured after 24 hrs by well-diffusion method; conditions: MTCC530, 24 h
Candida albicans [36] = experiment: Antimicrobial activity against Candida albicans MTCC3017 measured after 24 hrs by well-diffusion method; conditions: MTCC3017, 24 h
Pseudomonas aeruginosa = experiment: Antimicrobial activity against Pseudomonas aeruginosa MTCCM2453 measured after 24 hrs by well-diffusion method; conditions: MTCCM2453, 24 h

## CCCCCCC(C/C=C\CCCCCCCC(=O)OC)NC(=O)CN (stereo not given)
Candida albicans [1]
  MFC: 7.8 to 31.2 µg/mL (≈ 21.2 to 84.7 µM)
Candida albicans [2]
  MIC: 7.8 µg/mL (≈ 21.2 µM)
Candida albicans [3]
  MIC: 7.8 µg/mL (≈ 21.2 µM)
Bacillus subtilis [4]
  MBC: 7.8 µg/mL (≈ 21.2 µM)
Candida albicans [5]
  MIC: 7.8 µg/mL (≈ 21.2 µM)
Candida albicans [6]
  MFC: 7.8 to 31.2 µg/mL (≈ 21.2 to 84.7 µM)
Bacillus subtilis [7]
  MIC: 7.8 µg/mL (≈ 21.2 µM)
Candida albicans [8]
  MIC: 7.8 µg/mL (≈ 21.2 µM)
Escherichia coli
  MIC: > 125 µg/mL
Candida parapsilosis [9]
  MIC: 7.8 µg/mL (≈ 21.2 µM)
Candida albicans [10]
  MFC: 7.8 to 31.2 µg/mL (≈ 21.2 to 84.7 µM)
Candida albicans [11]
  MIC: 7.8 µg/mL (≈ 21.2 µM)
Staphylococcus aureus [12]
  IC50: 2.1 µg/mL (≈ 5.7 µM)
Candida albicans [13]
  MFC: 7.8 to 31.2 µg/mL (≈ 21.2 to 84.7 µM)
[Candida] aaseri
  MFC: 7.8 to 31.2 µg/mL (≈ 21.2 to 84.7 µM)
Staphylococcus aureus [14]
  MBC: 7.8 µg/mL (≈ 21.2 µM)
Pichia kudriavzevii [15]
  MIC: 7.8 µg/mL (≈ 21.2 µM)
Nakaseomyces glabratus [16]
  MFC: 7.8 to 31.2 µg/mL (≈ 21.2 to 84.7 µM)
Pichia sporocuriosa
  MIC: 7.8 µg/mL (≈ 21.2 µM)
Candida albicans [17]
  MFC: 7.8 to 31.2 µg/mL (≈ 21.2 to 84.7 µM)
Candida parapsilosis [18]
  MFC: 7.8 to 31.2 µg/mL (≈ 21.2 to 84.7 µM)
Pichia kudriavzevii [19]
  IC50: 4.1 µg/mL (≈ 11.1 µM)
Staphylococcus aureus [20]
  MBC: 7.8 µg/mL (≈ 21.2 µM)
Nakaseomyces glabratus [21]
  MIC: 7.8 µg/mL (≈ 21.2 µM)
Bacillus subtilis [22]
  IC50: 2.9 µg/mL (≈ 7.87 µM)
Candida albicans [23]
  MIC: 7.8 µg/mL (≈ 21.2 µM)
Pichia kudriavzevii [24]
  MFC: 7.8 µg/mL (≈ 21.2 µM)
Micrococcus luteus [25]
  IC50: 1.9 µg/mL (≈ 5.16 µM)
Candida albicans [26]
  MFC: 7.8 to 31.2 µg/mL (≈ 21.2 to 84.7 µM)
Micrococcus luteus [27]
  MIC: 3.9 µg/mL (≈ 10.6 µM)
Micrococcus luteus [28]
  MBC: 7.8 µg/mL (≈ 21.2 µM)
Staphylococcus aureus [29]
  MIC: 3.9 µg/mL (≈ 10.6 µM)
Staphylococcus aureus [30]
  MIC: 7.8 µg/mL (≈ 21.2 µM)
Candida albicans [31]
  MFC: 7.8 to 31.2 µg/mL (≈ 21.2 to 84.7 µM)
Candida albicans [32]
  MFC: 7.8 to 31.2 µg/mL (≈ 21.2 to 84.7 µM)
Candida albicans [33]
  MIC: 7.8 µg/mL (≈ 21.2 µM)
Candida albicans [34]
  MIC: 7.8 µg/mL (≈ 21.2 µM)
Staphylococcus aureus [35]
  IC50: 4.1 µg/mL (≈ 11.1 µM)
Raoultella planticola
  MIC: > 125 µg/mL
Candida albicans [36]
  MIC: 7.8 µg/mL (≈ 21.2 µM)
Pseudomonas aeruginosa
  MIC: > 125 µg/mL

## O=C(O)c1cn(C2CC2)c2cc(N3CCNCC3)c(F)cc2c1=O [CIPROFLOXACIN]
Bacillus subtilis [4]
  MBC: 0.7 to 1.9 µg/mL (≈ 2.11 to 5.73 µM)
Bacillus subtilis [7]
  MIC: 0.9 µg/mL (≈ 2.72 µM)
Escherichia coli
  MIC: 0.9 µg/mL (≈ 2.72 µM)
Staphylococcus aureus [14]
  MBC: 0.7 to 1.9 µg/mL (≈ 2.11 to 5.73 µM)
Staphylococcus aureus [20]
  MBC: 0.7 to 1.9 µg/mL (≈ 2.11 to 5.73 µM)
Micrococcus luteus [27]
  MIC: 0.9 µg/mL (≈ 2.72 µM)
Micrococcus luteus [28]
  MBC: 0.7 to 1.9 µg/mL (≈ 2.11 to 5.73 µM)
Staphylococcus aureus [29]
  MIC: 0.9 µg/mL (≈ 2.72 µM)
Staphylococcus aureus [30]
  MIC: 0.9 µg/mL (≈ 2.72 µM)
Raoultella planticola
  MIC: 0.9 µg/mL (≈ 2.72 µM)
Pseudomonas aeruginosa
  MIC: 0.9 µg/mL (≈ 2.72 µM)

## Clc1ccc(COC(Cn2ccnc2)c2ccc(Cl)cc2Cl)c(Cl)c1 (stereo not given) [MICONAZOLE]
Candida albicans [2]
  MIC: 7.8 µg/mL (≈ 18.7 µM)
Candida albicans [3]
  MIC: 7.8 µg/mL (≈ 18.7 µM)
Candida albicans [5]
  MIC: 7.8 µg/mL (≈ 18.7 µM)
Candida albicans [8]
  MIC: 7.8 µg/mL (≈ 18.7 µM)
Candida parapsilosis [9]
  MIC: 7.8 µg/mL (≈ 18.7 µM)
Candida albicans [11]
  MIC: 7.8 µg/mL (≈ 18.7 µM)
Pichia kudriavzevii [15]
  MIC: 7.8 µg/mL (≈ 18.7 µM)
Pichia sporocuriosa
  MIC: 7.8 µg/mL (≈ 18.7 µM)
Nakaseomyces glabratus [21]
  MIC: 7.8 µg/mL (≈ 18.7 µM)
Candida albicans [23]
  MIC: 7.8 µg/mL (≈ 18.7 µM)
Candida albicans [33]
  MIC: 7.8 µg/mL (≈ 18.7 µM)
Candida albicans [34]
  MIC: 7.8 µg/mL (≈ 18.7 µM)
Candida albicans [36]
  MIC: 7.8 µg/mL (≈ 18.7 µM)
